Reference: publication PMC11652885, “Natural volatiles preventing mosquito biting: An integrated screening platform for accelerated discovery of ORco antagonists” (The Journal of Biological Chemistry, 2024)

test system: Aedes albopictus; assay: Hand in a cage repellence bioassay (human hand landing counts); type: in vivo; conditions: dose 50 nmole/cm^2; preliminary tests, data not shown

Structure (SMILES) | repellence index (RI)
Cc1ccc2ccccc2n1 [compound 66, 2-Methylquinoline] | high activities
CC(C)=CCC[C@](C)(O)[C@@H]1CC=C(C)CC1 [compound 77, α-Bisabolol] | 30%-50%
CCCC=CC=CC=O [compound 39, 2,4-Octadienal] | 30%-50%
CC1(C)C2CC3OC3(C)C1C2 (stereo not drawn) [compound 62, α-Pinene oxide] | 30%-50%
CC1(C)C2CCC1(C)C(O)C2 (centres unmarked) [compound 64, Borneol] | high activities
CCCCC/C=C\CCO [compound 54, (Z)-3-Nonen-1-ol] | 30%-50%
CC(C)CCCCCCCCC=CCC#N [compound 83, 13-Methyltetradec-3-ene nitrile] | high activities
CC(C)C/C=C1/C(=O)OCC1C (centres unmarked) [compound 98, (E)-3-Methyl-2-(3-methylbutyliden)-4-butanolide] | high activities
